According to US20250332276A1, “Inhibitors of Molluscum Contagiosum Infection and Methods Using the Same” (priority 2022, published 2025):
Where two headings read alike, the source gives them in different places. *1 amine or outer side, *2 acyl side, *3 side chain or, on linkers, in order; H or OH if unused. Where a SMILES comes first, the peptide text is derived from it. The star is where a group is joined. X1 = CCC(C(=O)Nc1sc(C(=O)*)c(C)c1C(=O)OC)c1ccc(C(F)(F)F)cc1; Ethylenediamine = C(CN[*:2])N[*:1]; Boc = CC(C)(C)OC(=O)*

Key:
mD4 [1] = biological target: T1, mD4 (Molluscum contagiosum virus, UniProt Q98260); assay: mD4 dependent processive DNA synthesis in vitro (mD4 anti-processivity); type: biochemical
mD4 [2] = biological target: T1, mD4; assay: Micro-Scale Thermophoresis binding to mD4; details: microscale thermophoresis
mD4 (mD4+A20+Pol) = mD4 (mD4+A20+Pol) (Molluscum contagiosum virus subtype 1, UniProt Q98260); assay: biochemical
[3] = 3-Day Cell Viability Assay (cytotoxicity)
[4] = Table 2, read-out: IC50 (μM), mD4 anti-processivity activity

T1 sequence (Q98260 1-226): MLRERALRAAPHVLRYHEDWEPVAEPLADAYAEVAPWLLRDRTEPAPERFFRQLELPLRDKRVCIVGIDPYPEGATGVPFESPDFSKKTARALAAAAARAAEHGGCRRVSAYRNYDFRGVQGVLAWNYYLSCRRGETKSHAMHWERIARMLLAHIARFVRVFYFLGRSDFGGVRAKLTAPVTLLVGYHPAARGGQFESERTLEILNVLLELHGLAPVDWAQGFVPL
mD4 (mD4+A20+Pol), sequence (Q98260 1-226): as above

Structure (SMILES) | IC50 (mD4 (mD4+A20+Pol)) [µM] | IC50 (mD4 [1]; [4]) [µM] | further results
CCC(C(=O)Nc1sc(C(=O)NCCNC(=O)[C@@H](NC(=O)[C@@H](NC(=O)[C@@H](N)C(C)C)C(C)C)C(C)C)c(C)c1C(=O)OC)c1ccc(F)cc1 (stereo partly drawn) [Compound 9, Methyl 5-((2-((S)-2-((S)-2-((S)-2-amino-3-methylbutanamido)-3-methylbutanamido)-3-methylbutanamido)ethyl)carbamoyl)-2-(2-(4-fluorophenyl)butanamido)-4-methylthiophene-3-carboxylate] | 5.6 | – | IC50 (mD4 [1]; read-out: IC50, mD4 dependent processive DNA synthesis in vitro): 5 µM; Kd (mD4 [2]): 2.84 µM; CC50 at 3 day [3]: > 100 µM; cytotoxicity, result in words ([3]; cell viability assay or seen when evaluated in mD4-VV infection): no measurable cytotoxicity
CCC(C(=O)Nc1sc(C(=O)NCCNC(=O)[C@H](NC(=O)[C@H](NC(=O)[C@H](N)C(C)C)C(C)C)C(C)C)c(C)c1C(=O)OC)c1ccc(F)cc1 (stereo partly drawn) [Compound 20, Methyl 5-((2-((R)-2-((R)-2-((R)-2-amino-3-methylbutanamido)-3-methylbutanamido)-3-methylbutanamido)ethyl)carbamoyl)-2-(2-(4-fluorophenyl)butanamido)-4-methylthiophene-3-carboxylate] | – | 3 | –
CCC(C(=O)Nc1sc(C(=O)NCCNC(=O)[C@@H](NC(=O)[C@@H](NC(=O)[C@@H](NC(=O)OC(C)(C)C)C(C)C)C(C)C)C(C)C)c(C)c1C(=O)OC)c1ccc(F)cc1 (stereo partly drawn) [Compound 8, Methyl 2-(2-(4-fluorophenyl)butanamido)-4-methyl-S-(((6S,9S,12S)-6,9,12-triisopropyl-2,2-dimethyl-4,7,10,13-tetraoxo-3-oxa-5,8,11,14-tetraazahexadecan-16-yl)carbamoyl)thiophene-3-carboxylate] | – | 10.7 | –
CCC(C(=O)Nc1sc(C(=O)NCCNC(=O)[C@@H](NC(=O)[C@@H](NC(=O)[C@@H](NC(=O)[C@@H](NC(=O)OC(C)(C)C)C(C)C)C(C)C)C(C)C)C(C)C)c(C)c1C(=O)OC)c1ccc(C(F)(F)F)cc1 (stereo partly drawn) [Compound 26, Methyl 4-methyl-5-(((6S,9S,12S,15S)-6,9,12,15-tetraisopropyl-2,2-dimethyl-4,7,10,13,16-pentaoxo-3-oxa-5,8,11,14,17-pentaazanonadecan-19-yl)carbamoyl)-2-(2-(4-(trifluoromethyl)phenyl)butanamido)thiophene-3-carboxylate] (Boc-VVVV-{Ethylenediamine-X1}) | – | 4.1 | –
CCC(C(=O)Nc1sc(C(=O)NCCNC(=O)[C@@H](NC(=O)[C@@H](NC(=O)OC(C)(C)C)C(C)C)C(C)C)c(C)c1C(=O)OC)c1ccc(F)cc1 (stereo partly drawn) [Compound 5, Methyl 5-(((6S,9S)-6,9-diisopropyl-2,2-dimethyl-4,7,10-trioxo-3-oxa-5,8,11-triazatridecan-13-yl)carbamoyl)-2-(2-(4-fluorophenyl)butanamido)-4-methylthiophene-3-carboxylate] | – | 20 | –
CC(C)[C@H](N)C(=O)N[C@H](C(=O)N[C@H](C(=O)O)C(C)C)C(C)C [TriVal-Peptide Control, ((L)-Val)3, reference compound] (H-Val-Val-Val-OH) | > 100 | – | –
